# Assay results reported in patent US10167258B2, “Inhibitors of mitochondrial pyruvate dehydrogenase kinase isoforms 1-4 and uses thereof” (The Board of Regents of the University of Texas System, priority 2013, dated 2019).
# Key:
# [1] = molecular target: T1, human PDK1 (Homo sapiens, UniProt Q15118); assay: Assay for inhibition of PDK activity, PDK1; type: biochemical; conditions: absence of E2/E3BP core (−)
# T1 construct: made in house
# Description: (§1) Recombinant human PDK2 was expressed and purified as a N terminal His6-tagged SUMO fusion protein with a tobacco-etch-virus protease (TEV) cleavage site in front of the N-terminal PDK2 sequence (26), and was used directly for the activity assay and binding affinity analyses. For crystallization, the protein was subjected to a TEV-protease digestion, and the untagged PDK2 protein was purified on a Superdex 200 column in 20 mM Tris-HCl (pH 8.0), 150 mM NaCl and 5 mM DTT. The purified protein was concentrated to 35-40 mg/ml and stored at −80° C. in small aliquots. Recombinant human PDK1, PDK3 and PDK4 were expressed and purified as described previously (26).
# (§2) . The remaining steps were described previously (26). IC50 values were obtained by the curve fitting of inhibition isotherms using Prism 6 (GraphPad software, Inc.).
# [2] = system: phosphorylated E1α subunit; assay: Western blotting of phosphorylated E1α subunit in tissues of DIO mice; type: in vivo; conditions: single dose 70 mg/kg IP, 10 h
# Description: Six- to eight-week old C57BL/6J male mice were obtained from the local campus breeding colony at UT Southwestern Medical Center (Dallas, Tex.) and randomized into two groups: vehicle- and PS10-treated. Prior to the treatment, mice were fed with a 60% high-fat diet, which contained 32% saturated and 68% unsaturated fat (catalog number: D12492, Research Diet Inc. New Brunswick, N.J.), for eight to ten weeks to produce DIO animals. PS-10 was dissolved in 100% DMSO and then diluted to make a 10% DMSO aqueous solution containing 17.5% (w/v) (2-hydroxypropyl)-β-cyclodextrin for delivery. Animals were dosed at mid-day by intraperitoneal (IP) injections at 70 mg/kg using 1-ml syringe and 30-gauge needle. The length of the treatment is indicted in each experiment. At 10 h after the last injection, animals were euthanized using carbon dioxide asphyxiation followed by cervical dislocation and dissection. Blood was harvested by cardiac puncture and stored on ice. Acidified citrate dextrose (ACD) was used as an anticoagulant. Immediately after blood collection, heart, liver, kidneys and both hind-leg quadriceps muscles were removed and snap frozen in liquid nitrogen. Average ischemia time before organ harvest was about 2 to 3 min. Blood was centrifuged in an Eppendorf 5415R refrigerated microcentrifuge at 9,300×g for 5 min to isolate plasma, which was subsequently stored at −80° C. […]
# [3] = molecular target: T2, PDP1 (Homo sapiens, UniProt Q9P0J1); assay: PDP1 activity in vitro; type: biochemical; conditions: at up to 1 mM
# T2 sequence (Q9P0J1 72-537): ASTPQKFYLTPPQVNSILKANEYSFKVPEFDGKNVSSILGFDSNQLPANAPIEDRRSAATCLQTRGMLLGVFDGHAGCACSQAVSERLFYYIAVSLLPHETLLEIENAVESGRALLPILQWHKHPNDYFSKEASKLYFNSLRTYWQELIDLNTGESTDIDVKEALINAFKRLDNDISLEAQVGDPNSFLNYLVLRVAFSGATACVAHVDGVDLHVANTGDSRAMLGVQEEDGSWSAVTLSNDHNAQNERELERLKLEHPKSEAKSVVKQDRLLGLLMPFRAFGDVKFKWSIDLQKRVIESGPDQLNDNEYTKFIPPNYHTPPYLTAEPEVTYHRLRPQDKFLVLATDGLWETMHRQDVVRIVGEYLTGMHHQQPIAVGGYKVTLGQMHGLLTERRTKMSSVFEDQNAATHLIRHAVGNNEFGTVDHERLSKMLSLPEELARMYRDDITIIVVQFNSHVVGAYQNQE
# [4] = Food intake, body weight and fat mass of DIO mice; type: in vivo; conditions: 70 mg/kg/day
# Description: Six- to eight-week old C57BL/6J male mice were obtained from the local campus breeding colony at UT Southwestern Medical Center (Dallas, Tex.) and randomized into two groups: vehicle- and PS10-treated. Prior to the treatment, mice were fed with a 60% high-fat diet, which contained 32% saturated and 68% unsaturated fat (catalog number: D12492, Research Diet Inc. New Brunswick, N.J.), for eight to ten weeks to produce DIO animals. PS-10 was dissolved in 100% DMSO and then diluted to make a 10% DMSO aqueous solution containing 17.5% (w/v) (2-hydroxypropyl)-β-cyclodextrin for delivery. Animals were dosed at mid-day by intraperitoneal (IP) injections at 70 mg/kg using 1-ml syringe and 30-gauge needle. The length of the treatment is indicted in each experiment. At 10 h after the last injection, animals were euthanized using carbon dioxide asphyxiation followed by cervical dislocation and dissection. Blood was harvested by cardiac puncture and stored on ice. Acidified citrate dextrose (ACD) was used as an anticoagulant. Immediately after blood collection, heart, liver, kidneys and both hind-leg quadriceps muscles were removed and snap frozen in liquid nitrogen. Average ischemia time before organ harvest was about 2 to 3 min. Blood was centrifuged in an Eppendorf 5415R refrigerated microcentrifuge at 9,300×g for 5 min to isolate plasma, which was subsequently stored at −80° C.
# [5] = system: DIO mice; assay: Histochemistry of the liver (Oil Red O) of DIO mice; type: in vivo; conditions: 70 mg/kg/day
# Description: Histological examination of the liver was performed in the institutional Immunohistochemistry Laboratory. Liver tissue was dissected, grossly trim then fixed by immersion for 48 hrs in 4% Formalin/PBS (4% […], 137 mM NaCl, 2.7 mM KCl and 10 mM phosphate buffer, pH 7.5) at 4° C. Liver samples were then transferred to 10% (w/v) sucrose in PBS and incubate at 4° C. for 24 hrs. Tissues were incubated in 18% sucrose in PBS at 4° C. for 24 hours. Finally, samples were transferred to a fresh 18% sucrose solution and embedded in OCT (Optimal cutting temperature compound), cryo-sectioned and stained with Oil Red O.
# [6] = molecular target: PDK3 (Homo sapiens, UniProt Q15120); assay: Assay for inhibition of PDK activity, PDK3; type: biochemical; set-up: made in house; conditions: absence of E2/E3BP core (−)
# Description: as §1, §2
# Chain of PDK3 (Q15120 whole entry): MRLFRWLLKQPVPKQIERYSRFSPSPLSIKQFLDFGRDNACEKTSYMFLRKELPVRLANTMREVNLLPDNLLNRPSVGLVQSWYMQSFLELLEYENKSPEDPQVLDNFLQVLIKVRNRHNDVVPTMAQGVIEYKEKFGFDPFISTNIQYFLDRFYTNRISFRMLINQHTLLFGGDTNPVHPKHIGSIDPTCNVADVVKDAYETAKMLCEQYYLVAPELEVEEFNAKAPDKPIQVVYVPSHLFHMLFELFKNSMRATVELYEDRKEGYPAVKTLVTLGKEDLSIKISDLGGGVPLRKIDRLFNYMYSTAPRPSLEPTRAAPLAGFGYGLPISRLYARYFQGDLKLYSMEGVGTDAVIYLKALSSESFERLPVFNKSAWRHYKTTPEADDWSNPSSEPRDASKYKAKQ
# T1 sequence (Q15118 29-436): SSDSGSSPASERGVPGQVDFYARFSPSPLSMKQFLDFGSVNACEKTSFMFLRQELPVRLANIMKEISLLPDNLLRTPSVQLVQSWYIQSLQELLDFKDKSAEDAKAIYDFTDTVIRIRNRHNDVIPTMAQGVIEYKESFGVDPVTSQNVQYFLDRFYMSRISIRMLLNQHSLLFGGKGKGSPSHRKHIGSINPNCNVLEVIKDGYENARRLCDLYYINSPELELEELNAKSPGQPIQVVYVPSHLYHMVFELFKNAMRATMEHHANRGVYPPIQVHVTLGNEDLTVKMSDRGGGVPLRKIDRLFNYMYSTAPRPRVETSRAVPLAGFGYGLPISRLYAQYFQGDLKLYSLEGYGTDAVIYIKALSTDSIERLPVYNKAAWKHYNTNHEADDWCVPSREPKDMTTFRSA
compound,measurement,setting,value
"O=S(=O)(c1ccc(O)cc1O)N1Cc2cc(O)cc(O)c2C1 [PS10, 2-((2,4-dihydroxyphenyl)sulfonyl)isoindoline-4,6-diol]",IC50,[1],2.07 µM
same,amounts of the phosphorylated E1α subunit in heart and liver vs vehicle-treated,[2],significantly decreased
same,effect on PDP1 activity in vitro,[3],without effect
same,body weight vs vehicle-treated,[4],no significant differences
same,fat-mass vs vehicle-treated,[4],reduction
same,food intake vs vehicle-treated,[4],no significant differences
same,"fat in the liver, Oil Red O stain",[5],larger amounts of fat were present in the liver of the vehicle-treated DIO mice compared with PS10-treated
same,IC50,[6],21.3 µM
